Drawing on patent US9624214B2, “Amino-substituted imidazo[1,2-a]pyridinecarboxamides and their use” (BAYER PHARMA AKTIENGESELLSCHAFT, priority 2012, dated 2017), this text covers MEC for 20 compounds.

Where a name gives a salt, the structure may show the parent alone.

The target in the assay is T1, recombinant guanylate cyclase reporter cell line (Rattus norvegicus, UniProt P19686+P20595).
T1 construct: expressed in transfected cells
T1 sequence (P20595 1-619): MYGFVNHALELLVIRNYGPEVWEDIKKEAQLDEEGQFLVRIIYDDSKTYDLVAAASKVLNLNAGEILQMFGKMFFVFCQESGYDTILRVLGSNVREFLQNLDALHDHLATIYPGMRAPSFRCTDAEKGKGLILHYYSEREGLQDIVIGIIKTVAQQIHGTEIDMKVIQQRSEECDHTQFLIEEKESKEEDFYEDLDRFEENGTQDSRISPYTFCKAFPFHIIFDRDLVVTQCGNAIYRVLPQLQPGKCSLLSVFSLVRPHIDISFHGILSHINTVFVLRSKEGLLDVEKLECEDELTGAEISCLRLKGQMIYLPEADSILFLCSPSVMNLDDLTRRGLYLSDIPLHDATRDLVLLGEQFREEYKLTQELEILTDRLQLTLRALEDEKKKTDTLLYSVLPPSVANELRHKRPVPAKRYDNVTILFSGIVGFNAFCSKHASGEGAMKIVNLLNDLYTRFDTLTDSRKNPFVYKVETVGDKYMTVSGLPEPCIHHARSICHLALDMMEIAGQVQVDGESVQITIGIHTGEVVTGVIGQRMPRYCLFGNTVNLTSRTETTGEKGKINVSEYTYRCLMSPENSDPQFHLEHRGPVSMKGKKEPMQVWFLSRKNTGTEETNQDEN
T1 sequence (P19686 1-690): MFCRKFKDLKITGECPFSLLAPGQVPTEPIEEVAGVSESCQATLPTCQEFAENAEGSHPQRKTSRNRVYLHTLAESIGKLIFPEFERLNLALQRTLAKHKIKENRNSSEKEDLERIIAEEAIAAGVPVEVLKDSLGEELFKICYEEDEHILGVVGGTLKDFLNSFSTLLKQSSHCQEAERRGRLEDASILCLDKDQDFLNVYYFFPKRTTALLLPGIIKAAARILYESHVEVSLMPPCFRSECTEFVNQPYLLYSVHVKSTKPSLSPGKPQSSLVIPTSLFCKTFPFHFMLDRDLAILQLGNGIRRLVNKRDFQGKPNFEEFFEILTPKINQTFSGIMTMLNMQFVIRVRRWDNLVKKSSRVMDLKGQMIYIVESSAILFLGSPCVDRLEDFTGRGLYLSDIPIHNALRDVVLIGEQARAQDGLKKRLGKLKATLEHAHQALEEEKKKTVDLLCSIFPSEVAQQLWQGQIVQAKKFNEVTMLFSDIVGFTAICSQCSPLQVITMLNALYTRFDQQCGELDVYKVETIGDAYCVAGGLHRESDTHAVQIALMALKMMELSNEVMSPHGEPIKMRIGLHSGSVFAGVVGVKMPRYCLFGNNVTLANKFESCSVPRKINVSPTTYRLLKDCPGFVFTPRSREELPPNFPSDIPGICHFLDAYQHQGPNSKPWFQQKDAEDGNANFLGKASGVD
In words: B-2. Action on recombinant guanylate cyclase reporter cell line. The class given is cell-based. The settings on record: MEC = minimal effective concentration; in some cases mean values from individual determinations. Summed up: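 Cellular activity was measured in a reporter cell line expressing recombinant guanylate cyclase. Values are given as MEC, the minimal effective concentration, and some are means of individual determinations.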

`Cc1nc2c(OCc3c(F)cccc3F)cccn2c1C(=O)NC(CN)c1ccc(Cl)cc1` (single isomer, unassigned; enantiomer b) [Example 15, ent-N-[2-Amino-1-(4-chlorophenyl)ethyl]-8-[(2,6-difluorobenzyl)oxy]-2-methylimidazo[1,2-a]-pyridine-3-carboxamide (Enantiomer B)]: the MEC came out at 0.53 µM.

As to `Cc1nc2c(OCc3c(F)cccc3F)cccn2c1C(=O)NC(CN)c1ccccc1` (single isomer, unassigned; enantiomer b) [Example 18, ent-N-(2-Amino-1-phenylethyl)-8-[(2,6-difluorobenzyl)oxy]-2-methylimidazo[1,2-a]pyridine-3-carboxamide (Enantiomer B)], the MEC is 0.55 µM.

On to `Cc1nc2c(OCc3c(F)cccc3F)cccn2c1C(=O)NC(C)CN` (single isomer, unassigned; enantiomer b) [Example 20, ent-N-(1-Aminopropan-2-yl)-8-[(2,6-difluorobenzyl)oxy]-2-methylimidazo[1,2-a]pyridine-3-carboxamide (Enantiomer B)], for which the MEC came to 1.00 µM.

Turning to `Cc1nc2c(OCc3c(F)cccc3F)cc(Cl)cn2c1C(=O)NCC(C)N` (single isomer, unassigned; enantiomer b) [Example 30, ent-N-(2-Aminopropyl)-6-chloro-8-[(2,6-difluorobenzyl)oxy]-2-methylimidazo[1,2-a]pyridine-3-carboxamide (Enantiomer B)], the MEC came out at 0.30 µM.

As to `COCC(N)CNC(=O)c1c(C)nc2c(OCc3c(F)cccc3F)cccn12` (single isomer, unassigned; enantiomer b) [Example 248, ent-N-(2-Amino-3-methoxypropyl)-8-[(2,6-difluorobenzyl)oxy]-2-methylimidazo[1,2-a]pyridine-3-carboxamide (Enantiomer B)], the MEC stood at 1.00 µM.

For `Cc1cc(OC(C)c2c(F)cccc2F)c2nc(C)c(C(=O)NCC(C)(C)N)n2c1` (single isomer, unassigned; enantiomer b) [Example 256, ent-N-(2-Amino-2-methylpropyl)-8-[1-(2,6-difluorophenyl)ethoxy]-2,6-dimethylimidazo[1,2-a]-pyridine-3-carboxamide (Enantiomer B)], the MEC came out at 3.00 µM.

`Cc1cc(OCc2c(F)cccc2F)c2nc(C)c(C(=O)NCC(C)(N)C3CC3)n2c1` (single isomer, unassigned; enantiomer b) [Example 261, ent-N-(2-Amino-2-cyclopropylpropyl)-8-[(2,6-difluorobenzyl)oxy]-2,6-dimethylimidazo[1,2-a]-pyridine-3-carboxamide (Enantiomer B)]: the MEC was 0.10 µM.

As to `Cc1nc2c(OCc3c(F)cccc3F)cccn2c1C(=O)NCC(C)(N)CCOCc1ccccc1` (single isomer, unassigned; enantiomer b) [Example 267, ent-N-[2-Amino-4-(benzyloxy)-2-methylbutyl]-8-[(2,6-difluorobenzyl)oxy]-2-methylimidazo[1,2-a]pyridine-3-carboxamide (Enantiomer B)], the MEC was determined as 0.10 µM.

`Cc1cc(OCc2c(F)cccc2F)c2nc(C)c(C(=O)NCC(C)(N)CO)n2c1` (single isomer, unassigned; enantiomer b) [Example 269, ent-N-(2-Amino-3-hydroxy-2-methylpropyl)-8-[(2,6-difluorobenzyl)oxy]-2,6-dimethylimidazo-[1,2-a]pyridine-3-carboxamide (Enantiomer B)]: the MEC came to 0.65 µM.

On to `CCC(C)(N)CNC(=O)c1c(C)nc2c(OCc3c(F)ccc(F)c3F)cc(C)cn12` (single isomer, unassigned; enantiomer b) [Example 275, ent-N-(2-Amino-2-methylbutyl)-2,6-dimethyl-8-[(2,3,6-trifluorobenzyl)oxy]imidazo[1,2-a]-pyridine-3-carboxamide (Enantiomer B)], for which the MEC stood at 0.10 µM.

Turning to `CCCC(C)(N)CNC(=O)c1c(C)nc2c(OCc3c(F)cccc3F)cc(OC)cn12` (single isomer, unassigned; enantiomer b) [Example 278, ent-N-(2-amino-2-methylpentyl)-8-[(2,6-difluorobenzyl)oxy]-6-methoxy-2-methylimidazo[1,2-a]pyridine-3-carboxamide (Enantiomer B)], the MEC is 0.3 µM.

Take `CCCC(C)(N)CNC(=O)c1c(C)nc2c(OCc3c(F)cccc3F)cc(N3CCOCC3)cn12` (single isomer, unassigned; enantiomer b) [Example 280, ent-N-(2-amino-2-methylpentyl)-8-[(2,6-difluorobenzyl)oxy]-2-methyl-6-(morpholin-4-yl)imidazo[1,2-a]pyridine-3-carboxamide (Enantiomer B)]: the MEC was determined as 0.65 µM.

Regarding `CCCC(C)(N)CNC(=O)c1c(C)nc2c(OCc3c(F)cccc3F)cc(C3CC3)cn12` (single isomer, unassigned; enantiomer b) [Example 281, ent-N-(2-amino-2-methylpentyl)-6-cyclopropyl-8-[(2,6-difluorobenzyl)oxy]-2-methylimidazo[1,2-a]pyridine-3-carboxamide (Enantiomer B)], the MEC is 0.3 µM.

`Cc1cc(OCc2c(F)cccc2F)c2nc(C)c(C(=O)NCC(C)(N)CF)n2c1` (single isomer, unassigned; enantiomer b) [Example 284, ent-N-(2-amino-3-fluoro-2-methylpropyl)-8-[(2,6-difluorobenzyl)oxy]-2,6-dimethylimidazo[1,2-a]pyridine-3-carboxamide (Enantiomer B)]: the MEC worked out at 0.1 µM.

In the case of `Cc1cc(OCc2c(F)ccc(F)c2F)c2nc(C)c(C(=O)NCC(C)(N)CF)n2c1` (single isomer, unassigned; enantiomer b) [Example 286, ent-N-(2-amino-3-fluoro-2-methylpropyl)-2,6-dimethyl-8-[(2,3,6-trifluorobenzyl)oxy]imidazo[1,2-a]pyridine-3-carboxamide (Enantiomer B)], the MEC turned out to be 0.1 µM.

For `CCCC(C)(N)CNC(=O)c1c(C)nc2c(OCc3c(F)cccc3F)cc(C(F)F)cn12` (single isomer, unassigned; enantiomer b) [Example 289, ent-N-(2-amino-2-methylpentyl)-8-[(2,6-difluorobenzyl)oxy]-6-(difluoromethyl)-2-methylimidazo[1,2-a]pyridine-3-carboxamide Formate (Enantiomer B)], the MEC came to 0.3 µM.

With `CCCC(C)(N)CNC(=O)c1c(C)nc2c(OCc3c(F)cccc3F)cc(C(F)F)cn12` (single isomer, unassigned; enantiomer b) [Example 290, ent-N-(2-amino-2-methylpentyl)-8-[(2,6-difluorobenzyl)oxy]-6-(difluoromethyl)-2-methylimidazo[1,2-a]pyridine-3-carboxamide (Enantiomer B)], the MEC was 0.3 µM.

In the case of `Cc1nc2c(OCc3c(F)cccc3F)cc(C(F)F)cn2c1C(=O)NCC(C)(N)CF` (single isomer, unassigned; enantiomer b) [Example 292, ent-N-(2-amino-3-fluoro-2-methylpropyl)-8-[(2,6-difluorobenzyl)oxy]-6-(difluoromethyl)-2-methylimidazo[1,2-a]pyridine-3-carboxamide (Enantiomer B)], the MEC is 0.03 µM.

Regarding `Cc1cc(OCc2c(F)cccc2F)c2nc(C)c(C(=O)NC3CCC3N)n2c1` (single isomer, unassigned; enantiomer b) [Example 329, ent-N-(2-aminocyclobutyl)-8-[(2,6-difluorobenzyl)oxy]-2,6-dimethylimidazo[1,2-a]pyridine-3-carboxamide (Enantiomer B)], the MEC worked out at 0.30 µM.

As for `Cc1cc(OCc2c(F)cccc2F)c2nc(C)c(C(=O)NC3CCC3(C)N)n2c1` (single isomer, unassigned; enantiomer b) [Example 333, ent-N-[2-amino-2-methylcyclobutyl]-8-[(2,6-difluorobenzyl)oxy]-2,6-dimethylimidazo[1,2-a]pyridine-3-carboxamide (Enantiomer B)], the MEC was found to be 1.00 µM.
